Measurements published in paper PMC6013238, “Development of novel NEMO-binding domain mimetics for inhibiting IKK/NF-κB activation” (PLoS Biology, 2018).
Entries after “also recorded” stand apart in the source; their conditions may differ.

How the values were obtained:
[1] = molecular target: T1, NEMO/IKKα interaction (Mus musculus, UniProt O88522); assay: Co-immunoprecipitation of NEMO and IKKα in Raw 264.7 cells; type: cell-based; conditions: 0, 25, 50, 100, 150 μM, 30 min
T1 construct: Co-immunoprecipitation of endogenous IKKβ and NEMO; endogenous in cells; host or cells: Raw 264.7
Protocol: (§1) To determine whether the novel NBD mimetics target the NEMO-IKKβ interaction in vivo, co-immunoprecipitations were performed using extracts from Raw 264.7 macrophages (Fig 5A). […] No interaction between NEMO and TNF receptor-associated factor 2 (TRAF2) or IκBα was observed under these conditions. […] The levels of phosphorylated IKK complex, IκBα, and p65 in response to TNF-α and LPS were all reduced by SR12343 (Fig 5D & 5E). […] However, there were no changes in the levels of phospho-c-Jun N-terminal kinase (p-JNK), p-p38MAPK, total JNK, and p38MAPK by treatment with SR12343 (150 μM) in response to TNF-α or LPS stimulation (Fig 5G & 5H). […]
(§2) (A) Co-IP analysis detecting the IKKβ/NEMO interaction. […] NEMO-binding products were then analyzed for levels of IKKβ, IKKα, TRAF2, and IκBα (negative control), and levels of NEMO were used as a loading control (left panel). […] The levels of IKKβ-FLAG binding to GST-NEMO were determined by western blot analysis with GST-NEMO used as a loading control. […] Cell lysates were analyzed for activity of the IKK/NF-κB signaling pathway including activation of IKK complex, IκBα, and p65. […] Cell lysates were harvested and analyzed for activation of noncanonical NF-κB signaling, the processing of p100 to p52. […]

[2] = molecular target: T2, GST-NEMO and FLAG-IKKβ (Homo sapiens, UniProt Q9Y6K9); assay: IKKβ-NEMO binding assay (GST pull-down, recombinant proteins); conditions: at 12.5 μM; 15 nM each protein
T2 construct: Recombinant full-length NEMO tagged with GST at the N-terminus; purchased SignalChem (GST-NEMO); Origene (IKKβ-FLAG)
Protocol: as §1, §2

[3] = test system: phosphorylated IKK complex, IκBα and p65; assay: Western blot of IKK/NF-κB signaling in Raw 264.7 cells (TNF-α or LPS); type: cell-based, mouse; conditions: 150 μM (S2A Fig: 0-150 μM), 30 min; TNF-α 10 ng/ml or LPS 1 μg/ml 10 min
Protocol: as §1, §2

T2 sequence (Q9Y6K9 whole entry): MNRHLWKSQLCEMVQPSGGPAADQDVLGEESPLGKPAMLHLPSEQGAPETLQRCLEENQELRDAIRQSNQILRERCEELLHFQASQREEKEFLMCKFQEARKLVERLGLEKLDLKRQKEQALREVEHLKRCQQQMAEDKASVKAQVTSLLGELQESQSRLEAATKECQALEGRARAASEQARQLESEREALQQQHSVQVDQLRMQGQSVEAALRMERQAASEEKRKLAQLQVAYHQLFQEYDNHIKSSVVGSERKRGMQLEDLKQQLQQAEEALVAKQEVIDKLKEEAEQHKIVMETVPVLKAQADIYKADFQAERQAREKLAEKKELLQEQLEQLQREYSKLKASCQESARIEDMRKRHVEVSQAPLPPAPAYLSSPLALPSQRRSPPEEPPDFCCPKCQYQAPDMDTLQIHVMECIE
T1 sequence (O88522 whole entry): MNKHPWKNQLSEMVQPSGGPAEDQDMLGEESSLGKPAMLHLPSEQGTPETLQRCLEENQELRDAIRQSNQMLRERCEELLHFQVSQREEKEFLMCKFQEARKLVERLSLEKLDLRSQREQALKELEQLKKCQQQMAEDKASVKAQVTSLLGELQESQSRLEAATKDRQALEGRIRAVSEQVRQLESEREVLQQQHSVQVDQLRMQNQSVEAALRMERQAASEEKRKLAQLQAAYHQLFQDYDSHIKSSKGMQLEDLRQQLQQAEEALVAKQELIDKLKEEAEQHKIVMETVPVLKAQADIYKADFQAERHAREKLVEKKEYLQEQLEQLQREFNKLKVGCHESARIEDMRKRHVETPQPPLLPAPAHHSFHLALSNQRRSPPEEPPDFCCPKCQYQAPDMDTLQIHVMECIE

O=C(CNc1ccc(Cl)cn1)NCCc1cccc(Br)c1 [SR12343]
NEMO/IKKα binding (Co-IP) [1]: only a marginal effect
Disruption of interaction between GST-NEMO and FLAG-IKKβ [2]: able to disrupt
Levels of phosphorylated IKK complex, IκBα and p65 [3]: inhibited phosphorylation of IKKα/β and p65 and prevented IκBα from degradation; also recorded: all reduced
